Numbers after ± are expanded uncertainties.
Assays:
[1] = Molar enthalpy of transition or fusion; conditions: Crystal; DSC
[2] = Crystal; DTA

Compound	Molar enthalpy of transition or fusion [1]	Normal melting temperature [2]
O=C(O)C(O)c1ccccc1Br (stereo not given) [2-(2-bromophenyl)-2-hydroxyacetic acid]	5.33 ± 0.311 kcal/mol	86.8 ± 1 °C
O=C(O)C(O)c1ccc(Br)cc1 (stereo not given) [2-(4-bromophenyl)-2-hydroxyacetic acid]	4.25 ± 0.311 kcal/mol	118.1 ± 1 °C
O=C(O)C(O)c1ccc(Cl)cc1F (stereo not given) [2-(4-chloro-2-fluorophenyl)-2-hydroxyacetic acid]	4.23 ± 0.311 kcal/mol	90.5 ± 1 °C
O=C(O)C(O)c1ccc(Cl)cc1 (stereo not given) [2-(4-chlorophenyl)-2-hydroxyacetic acid]	3.87 ± 0.311 kcal/mol	120.1 ± 1 °C
O=C(O)C(O)c1ccc(F)cc1Cl (stereo not given) [2-chloro-4-fluoromandelic acid]	4.35 ± 0.311 kcal/mol	97.6 ± 1 °C
Cc1ccccc1C(O)C(=O)O (stereo not given) [2-hydroxy-2-(o-tolyl)acetic acid]	5.14 ± 0.311 kcal/mol	103.8 ± 1 °C
O=C(O)[C@@H](O)c1ccccc1Br [(S)-2-(2-bromophenyl)-2-hydroxyacetic acid]	5.35 ± 0.311 kcal/mol	119.4 ± 1 °C
O=C(O)[C@@H](O)c1ccc(F)cc1Cl [(S)-2-(2-chloro-4-fluorophenyl)-2-hydroxyacetic acid]	4.8 ± 0.311 kcal/mol	132.8 ± 1 °C
O=C(O)[C@@H](O)c1ccc(Cl)cc1F [(S)-2-(4-chloro-2-fluorophenyl)-2-hydroxyacetic acid]	3.61 ± 0.287 kcal/mol	107.8 ± 1 °C
O=C(O)[C@@H](O)c1ccc(Cl)cc1 [(S)-2-(4-chlorophenyl)-2-hydroxyacetic acid]	6.48 ± 0.311 kcal/mol	119.6 ± 1 °C

Continued, values first:

Molar enthalpy of transition or fusion [1]	Normal melting temperature [2]	Compound
7.19 ± 0.311 kcal/mol	119.6 ± 1 °C	O=C(O)C(O)c1cccc(Br)c1 (stereo not given) [2-(3-bromophenyl)-2-hydroxyacetic acid]
5.98 ± 0.311 kcal/mol	109.0 ± 1 °C	O=C(O)C(O)c1ccccc1I (stereo not given) [2-hydroxy-2-(2-iodophenyl)acetic acid]
5.88 ± 0.311 kcal/mol	97.0 ± 1 °C	O=C(O)C(O)c1cccc(I)c1 (stereo not given) [2-hydroxy-2-(3-iodophenyl)acetic acid]
7.27 ± 0.311 kcal/mol	142.2 ± 1 °C	O=C(O)C(O)c1ccc(I)cc1 (stereo not given) [2-hydroxy-2-(4-iodophenyl)acetic acid]
6.12 ± 0.311 kcal/mol	92.4 ± 1 °C	Cc1cccc(C(O)C(=O)O)c1 (stereo not given) [2-hydroxy-2-(m-tolyl)acetic acid]
6.12 ± 0.311 kcal/mol	143.8 ± 1 °C	Cc1ccc(C(O)C(=O)O)cc1 (stereo not given) [2-hydroxy-2-(p-tolyl)acetic acid]
5.5 ± 0.311 kcal/mol	103.1 ± 1 °C	O=C(O)[C@@H](O)c1cccc(Br)c1 [(S)-2-(3-bromophenyl)-2-hydroxyacetic acid]
4.11 ± 0.311 kcal/mol	127.6 ± 1 °C	O=C(O)[C@@H](O)c1ccc(Br)cc1 [(S)-2-(4-bromophenyl)-2-hydroxyacetic acid]
6.98 ± 0.311 kcal/mol	109.7 ± 1 °C	Cc1cccc([C@H](O)C(=O)O)c1 [(S)-2-hydroxy-2-(m-tolyl)acetic acid]
5.35 ± 0.311 kcal/mol	131.5 ± 1 °C	Cc1ccc([C@H](O)C(=O)O)cc1 [(S)-2-hydroxy-2-(p-tolyl)acetic acid]

— the NIST ThermoML archive (doi:10.1021/je500845d)
